In patent publication US9890152B2 (Genentech, Inc., priority 2012, dated 2018):
Several values for one entry are separate records, joined by “and”; a condition that tells them apart may be missing. Identical values can stand only once.

biological target: T1, EGFR del746-750 T790M (Homo sapiens, UniProt P00533, DEL746-750/T790M); test: EGFR del746-750 T790M biochemical assay (Caliper mobility shift); conditions: 5 μM ATP, 30 min, room temperature; apparent Ki (Morrison) converted by Cheng-Prusoff, Km of ATP 2.1 μM; read-out: EGFR(T790M/d746-750) Ki
T1 construct: purchased Carna Biosciences 08-528
T1 sequence (P00533 with tags, fused parts or gaps DEL746-750/T790M limits assumed): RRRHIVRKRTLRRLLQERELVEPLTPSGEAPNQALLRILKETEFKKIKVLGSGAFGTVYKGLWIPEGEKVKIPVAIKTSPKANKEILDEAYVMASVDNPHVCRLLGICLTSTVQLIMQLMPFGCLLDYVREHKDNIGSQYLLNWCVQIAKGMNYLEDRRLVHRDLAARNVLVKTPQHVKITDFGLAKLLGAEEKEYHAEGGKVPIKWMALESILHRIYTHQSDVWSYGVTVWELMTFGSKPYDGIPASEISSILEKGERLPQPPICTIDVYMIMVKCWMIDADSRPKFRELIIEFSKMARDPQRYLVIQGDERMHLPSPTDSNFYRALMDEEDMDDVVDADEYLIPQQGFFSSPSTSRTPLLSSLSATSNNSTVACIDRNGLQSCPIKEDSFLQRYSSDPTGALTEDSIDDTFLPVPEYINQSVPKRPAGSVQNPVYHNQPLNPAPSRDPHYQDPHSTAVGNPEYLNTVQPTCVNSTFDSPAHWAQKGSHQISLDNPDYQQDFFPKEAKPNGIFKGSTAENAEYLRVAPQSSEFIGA

Compound	Ki
COC1CCN(c2nccc(Nc3cc4c(cn3)nc(C)n4C(C)(C)C)n2)CC1 [Example 163, (1-tert-butyl-2-methyl-1H-imidazo[4,5-c]pyridin-6-yl)-[2-(4-methoxypiperidin-1-yl)pyrimidin-4-yl]amine]	14.9 nM
COC1CCN(c2nccc(Nc3cc4c(cn3)nc(C)n4Cc3ccccc3)n2)CC1 [Example 356, 1-Benzyl-N-[2-(4-methoxy-1-piperidyl)pyrimidin-4-yl]-2-methyl-imidazo[4,5-c]pyridin-6-amine]	562 nM
CO[C@H]1CN(c2nccc(Nc3cc4c(cn3)nc(C)n4C(C)C)n2)CC[C@@H]1O (racemic) [Example 509, (±)-1-(4-((1-Isopropyl-2-methyl-1H-imidazo[4,5-c]pyridin-6-yl)amino)pyrimidin-2-yl)-3-methoxypiperidin-4-ol]	348 nM
CCC(C)n1cc(C(=O)NC2CCN(C3COC3)CC2)c2cnc(Nc3ccnc(N4CC[C@@H](OC)[C@@H](F)C4)n3)cc21 (single isomer, unassigned) [Example 325]	3.35 nM
C[C@H](n1c([C@@H](C)O)nc2cnc(Nc3ccnc(OCC(C)(C)S(C)(=O)=O)n3)cc21)C(F)(F)F [Example 609, (R)-1-[6-[2-(2-Methanesulfonyl-2-methylpropoxy)pyrimidin-4-ylamino]-1-((S)-2,2,2-trifluoro-1-methylethyl)-1H-imidazo[4,5-c]pyridin-2-yl]ethanol]	13.1 nM
CCNC(=O)c1cn(C(C)CC)c2cc(Nc3ccnc(N4CC[C@@H](O)[C@@H](F)C4)n3)ncc12 (single isomer, unassigned) [Example 370]	4.02 nM
Cc1nc2cnc(Nc3ccnc(N4CC[C@H](O)[C@H](F)C4)n3)cc2n1C(C)C (racemic) [Example 505, (±)-3-Fluoro-1-(4-((1-isopropyl-2-methyl-1H-imidazo [4,5-c]pyridin-6-yl)amino)pyrimidin-2-yl)piperidin-4-ol]	42.8 nM
Cc1nc2cnc(Nc3ccnc(-c4cn(C)nc4N)n3)cc2n1C(C)C [Example 363, N-(2-(3-Amino-1-methyl-1H-pyrazol-4-yl)pyrimidin-4-yl)-1-isopropyl-2-methyl-1H-imidazo[4,5-c]pyridin-6-amine]	31 nM
Cc1nc2cnc(Nc3ccnc(N4CC[C@@H](O)C[C@H]4C)n3)cc2n1C(C)C [Example 601]	50.5 nM
C[C@@H](O)c1nc2cnc(Nc3ccnc(N4CCC(O)C(F)C4)n3)cc2n1[C@H](C)C(F)(F)F (stereo partly drawn) [Example 542, 3-Fluoro-1-{4-[2-((R)-1-hydroxyethyl)-1-((R)-2,2,2-trifluoro-1-methylethyl)-1H-imidazo[4,5-c]pyridin-6-ylamino]pyrimidin-2-yl}-piperidin-4-ol]	101 nM
CC(C)CC(C)n1c(CO)nc2cnc(Nc3ccnc(-c4cnn(S(=O)(=O)C5CC5)c4)n3)cc21 (stereo not drawn) [Example 478, (6-(2-(1-(cyclopropylsulfonyl)-1H-pyrazol-4-yl)pyrimidin-4-ylamino)-1-(4-methylpentan-2-yl)-1H-imidazo[4,5-c]pyridin-2-yl)methanol]	32.4 nM
Cc1nn(CCO)cc1-c1cn(C(C)C)c2cc(Nc3ccnc(-c4cnn(S(=O)(=O)C5CC5)c4)n3)ncc12 [Example 437, 2-(4-(6-(2-(1-(cyclopropylsulfonyl)-1H-pyrazol-4-yl)pyrimidin-4-ylamino)-1-isopropyl-1H-pyrrolo[3,2-c]pyridin-3-yl)-3-methyl-1H-pyrazol-1-yl)ethanol]	1.21 nM
CO[C@H]1CCN(c2nccc(Nc3cc4c(cn3)nc(CO)n4C(C)C)n2)C[C@H]1C(F)(F)F (racemic) [Example 628, (1-Isopropyl-6-(2-((±)-(cis)-4-methoxy-3-(trifluoromethyl)piperidin-1-yl)pyrimidin-4-ylamino)-1H-imidazo[4,5-c]pyridin-2-yl)methanol]	1190 nM
CC(C)n1cc(C(=O)NC2CCOCC2)c2cnc(Nc3ccnc(N4CCC(O)C(C)(C)C4)n3)cc21 (racemic) [Example 385, (±)-6-((2-(4-hydroxy-3,3-dimethylpiperidin-1-yl)pyrimidin-4-yl)amino)-l-isopropyl-N-(tetrahydro-2H-pyran-4-yl)-1H-pyrrolo[3,2-c] pyridine-3-carboxamide]	6.47 nM
CC(C)n1cc(C(=O)NC2COC2)c2cnc(Nc3ccnc(-c4cnn(S(=O)(=O)N5CCCC5)c4)n3)cc21 [Example 388, 1-isopropyl-N-(oxetan-3-yl)-6-((2-(1-(pyrrolidin-1-ylsulfonyl)-1H-pyrazol-4-yl)pyrimidin-4-yl)amino)-1H-pyrrolo[3,2-c]pyridine-3-carboxamide]	29 nM
CCCC(C)n1c(CO)nc2cnc(Nc3ccnc(-c4cnn(S(=O)(=O)C5CC5)c4)n3)cc21 (stereo not drawn) [Example 265, (6-(2-(1-(Cyclopropylsulfonyl)-1H-pyrazol-4-yl)pyrimidin-4-ylamino)-1-(pentan-2-yl)-1H-imidazo[4,5-c]pyridin-2-yl)methanol]	5.63 nM
CO[C@@H]1CCN(c2nccc(Nc3cc4c(cn3)nc(C)n4C(C)C)n2)C[C@H]1O (racemic) [Example 508, (±)-1-(4-((1-Isopropyl-2-methyl-1H-imidazo[4,5-c]pyridin-6-yl)amino)pyrimidin-2-yl)-4-methoxypiperidin-3-ol]	359 nM
CC(C)n1c([C@H](C)O)nc2cnc(Nc3ccnc(-c4cnn(S(=O)(=O)C5CC5)c4)n3)cc21 [Example 562, (S)-1-{6-[2-(1-Cyclopropanesulfonyl-1H-pyrazol-4-yl)pyrimidin-4-ylamino]-1-isopropyl-1H-imidazo[4,5-c]pyridin-2-yl}ethanol]	14 nM
Cc1nc2cnc(Nc3ccnc(-c4cnn(S(=O)(=O)C5CNC5)c4)n3)cc2n1C(C)C [Example 467, N-(2-(1-(azetidin-3-ylsulfonyl)-1H-pyrazol-4-yl)pyrimidin-4-yl)-1-isopropyl-2-methyl-1H-imidazo[4,5-c]pyridin-6-amine]	5.77 nM
CC(C)n1c([C@@H](C)O)nc2cnc(Nc3ccnc(-c4cnn(S(=O)(=O)C5CC5)c4)n3)cc21 [Example 561, (R)-1-{6-[2-(1-Cyclopropanesulfonyl-1H-pyrazol-4-yl)pyrimidin-4-ylamino]-1-isopropyl-1H-imidazo[4,5-c]pyridin-2-yl}ethanol]	1.73 nM
COC1CCN(c2nccc(Nc3cc4c(cn3)c(C(=O)NCCO)cn4C(C)C)n2)CC1 [Example 121, N-(2-hydroxyethyl)-1-isopropyl-6-((2-(4-methoxypiperidin-1-yl)pyrimidin-4-yl)amino)-1H-pyrrolo[3,2-c]pyridine-3-carboxamide]	24.4 nM
CS[C@H]1CCN(c2nccc(Nc3cc4c(cn3)nc(CO)n4C(C)C)n2)C[C@H]1F (racemic) [Example 622, (±)-{6-[2-(cis-3-Fluoro-4-methylsulfanylpiperidin-1-yl)pyrimidin-4-ylamino]-1-isopropyl-1H-imidazo[4,5-c]pyridin-2-yl}methanol]	170 nM
Cc1nc2cnc(Nc3ccnc(N4CCC(O)C(C)(C)C4)n3)cc2n1C(C)C (stereo not drawn) [Example 427, 1-(4-((1-isopropyl-2-methyl-1H-imidazo[4,5-c]pyridin-6-yl)amino)pyrimidin-2-yl)-3,3-dimethylpiperidin-4-ol]	119 nM

Second part, the molecule after the results:

Ki	Compound
1160 nM	Cc1nc2cnc(Nc3ccnc(NCC4CCS(=O)(=O)C4)n3)cc2n1C(C)C (stereo not drawn) [Example 652]
4.53 nM	CC(n1cc(C(=O)NC2CCOCC2)c2cnc(Nc3ccnc(-c4cnn(S(=O)(=O)C5CC5)c4)n3)cc21)C(F)(F)F (stereo not drawn) [Example 635, 6-(2-(1-(Cyclopropylsulfonyl)-1H-pyrazol-4-yl)pyrimidin-4-ylamino)-N-(tetrahydro-2H-pyran-4-yl)-1-(1,1,1-trifluoropropan-2-yl)-1H-pyrrolo[3,2-c]pyridine-3-carboxamide]
12.6 nM	CCc1ncc(-c2nccc(Nc3cc4c(cn3)nc(CO)n4C(C)C)n2)s1 [Example 671]
5.65 nM	C[C@H](n1c(CO)nc2cnc(Nc3ccnc(N4CC[C@H](O)[C@H](F)C4)n3)cc21)C(F)(F)F [Example 667]
230 nM	C[C@H](O)c1nc2cnc(Nc3ccnc(N4CC[C@@H](O)[C@@H](F)C4)n3)cc2n1[C@H](C)C(F)(F)F [Example 689]
107 nM	C[C@@H](O)c1nc2cnc(Nc3ccnc(N4CC[C@@H](O)[C@@H](F)C4)n3)cc2n1[C@H](C)C(F)(F)F [Example 687]
200 nM	Cc1nc2cnc(Nc3ccnc(N4CC[C@@H](C#N)C4)n3)cc2n1C(C)C [Example 678]
3.72 nM	CCC(C)n1cc(C(=O)NC2CCOCC2)c2cnc(Nc3ccnc(N4C[C@@H](F)[C@@H](O)C(C)(C)C4)n3)cc21 (mixture of isomers) [Example 646, 1-sec-Butyl-6-(2-((±)-cis-5-fluoro-4-hydroxy-3,3-dimethylpiperidin-1-yl)pyrimidin-4-ylamino)-N-(tetrahydro-2H-pyran-4-yl)-1H-pyrrolo[3,2-c]pyridine-3-carboxamide]
92 nM and 20 nM	CC(C)n1c(CO)nc2cnc(Nc3ccnc(N4C[C@@H](F)[C@@H](O)C(C)(C)C4)n3)cc21 [Example 650]
13.2 nM	C[C@H](n1c([C@@H](C)O)nc2cnc(Nc3ccnc(N4CCC(C)(O)CC4)n3)cc21)C(F)(F)F [Example 683]
1.65 nM	CCC(C)n1cc(C(=O)NC2COCCOC2)c2cnc(Nc3ccnc(-c4cnn(S(=O)(=O)C5CC5)c4)n3)cc21 (stereo not drawn) [Example 700]
239 nM	CC(C)n1c(CO)nc2cnc(Nc3ccnc(N4CC[C@H](O)[C@@](C)(F)C4)n3)cc21 [Example 702]
214 nM	Cc1nc2cnc(Nc3ccnc(OCC(C)(C)S(C)(=O)=O)n3)cc2n1C(C)C [Example 656]
4.4 nM	C[C@H](n1c([C@@H](C)O)nc2cnc(Nc3ccnc(N4C[C@@H](F)[C@@H](O)[C@@H](F)C4)n3)cc21)C(F)(F)F [Example 701]
73 nM	Cc1nc2cnc(Nc3ccnc(N4CC[C@@](C)(O)[C@H](F)C4)n3)cc2n1C(C)C [Example 674]
9.14 nM	Cc1nc2cnc(Nc3ccnc(N4CCc5cn[nH]c5C4)n3)cc2n1C(C)C [Example 651]
